Source: ChEMBL document CHEMBL4028852, “Design of a Chemical Probe for the Bromodomain and Plant Homeodomain Finger-Containing (BRPF) Family of Proteins” (J Med Chem, 2017)

How the values were obtained:
[1] = biological target: T1, Peregrin (Homo sapiens, UniProt P55201); test: Inhibition of His-tagged BRPF1 (unknown origin) after 30 mins by alphaScreen assay
T1 sequence (P55201 whole entry): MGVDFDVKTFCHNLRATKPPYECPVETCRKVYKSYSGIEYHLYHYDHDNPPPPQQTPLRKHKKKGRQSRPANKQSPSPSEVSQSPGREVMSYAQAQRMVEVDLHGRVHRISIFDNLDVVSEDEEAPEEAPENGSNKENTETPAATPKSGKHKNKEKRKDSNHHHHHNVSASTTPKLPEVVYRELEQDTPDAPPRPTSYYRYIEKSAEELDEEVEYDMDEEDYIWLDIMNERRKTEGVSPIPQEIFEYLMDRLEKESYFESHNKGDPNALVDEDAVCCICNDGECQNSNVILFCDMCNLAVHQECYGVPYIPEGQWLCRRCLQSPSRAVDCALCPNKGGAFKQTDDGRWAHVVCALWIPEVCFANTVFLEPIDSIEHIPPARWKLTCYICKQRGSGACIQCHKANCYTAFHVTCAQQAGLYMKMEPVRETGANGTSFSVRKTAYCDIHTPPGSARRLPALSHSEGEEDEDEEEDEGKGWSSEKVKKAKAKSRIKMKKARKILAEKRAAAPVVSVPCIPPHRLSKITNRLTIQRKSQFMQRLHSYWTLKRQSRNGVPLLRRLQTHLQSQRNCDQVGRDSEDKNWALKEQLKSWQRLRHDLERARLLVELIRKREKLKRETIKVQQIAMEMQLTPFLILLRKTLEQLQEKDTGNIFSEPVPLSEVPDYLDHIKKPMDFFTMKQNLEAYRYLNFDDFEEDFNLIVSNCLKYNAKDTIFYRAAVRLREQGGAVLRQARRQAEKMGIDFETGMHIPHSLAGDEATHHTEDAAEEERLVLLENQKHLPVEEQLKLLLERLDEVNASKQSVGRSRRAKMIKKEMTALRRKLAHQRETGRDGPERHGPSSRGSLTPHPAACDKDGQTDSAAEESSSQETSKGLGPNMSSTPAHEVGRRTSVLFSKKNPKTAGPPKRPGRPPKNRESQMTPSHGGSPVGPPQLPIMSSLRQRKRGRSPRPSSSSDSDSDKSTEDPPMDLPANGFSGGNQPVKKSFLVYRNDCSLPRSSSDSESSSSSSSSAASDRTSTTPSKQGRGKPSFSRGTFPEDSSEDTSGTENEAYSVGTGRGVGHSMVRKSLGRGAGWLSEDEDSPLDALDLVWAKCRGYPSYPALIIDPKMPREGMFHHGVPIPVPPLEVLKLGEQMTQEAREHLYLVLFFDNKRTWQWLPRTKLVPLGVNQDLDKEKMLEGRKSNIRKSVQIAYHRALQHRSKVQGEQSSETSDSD

[2] = Inhibition of cell proliferation of human HRA19 cells after 72 hrs by MTS assay; type: functional; details: HRA19, 72 h
[3] = biological target: Bromodomain-containing protein 4 (Homo sapiens, UniProt O60885); test: Inhibition of human BRD4 bromodomain 1 (unknown origin) using [H-YSGRGKacGGKacGLGKacGGAKacRHRK(Biotin)-OH peptide as substrate after 30 mins by alphaScreen assay
[4] = biological target: T1, Peregrin; test: Inhibition of BRPF1B (unknown origin) binding to histone H3.3 by nonoBRET assay
[5] = biological target: T2, ATPase family AAA domain-containing protein 2B (Homo sapiens, UniProt Q9ULI0); test: Inhibition of human ATAD2B (955 to 1082 residues) expressed in Escherichia coli BL21 after 1 hr by BROMOscan assay
T2 sequence (Q9ULI0 whole entry): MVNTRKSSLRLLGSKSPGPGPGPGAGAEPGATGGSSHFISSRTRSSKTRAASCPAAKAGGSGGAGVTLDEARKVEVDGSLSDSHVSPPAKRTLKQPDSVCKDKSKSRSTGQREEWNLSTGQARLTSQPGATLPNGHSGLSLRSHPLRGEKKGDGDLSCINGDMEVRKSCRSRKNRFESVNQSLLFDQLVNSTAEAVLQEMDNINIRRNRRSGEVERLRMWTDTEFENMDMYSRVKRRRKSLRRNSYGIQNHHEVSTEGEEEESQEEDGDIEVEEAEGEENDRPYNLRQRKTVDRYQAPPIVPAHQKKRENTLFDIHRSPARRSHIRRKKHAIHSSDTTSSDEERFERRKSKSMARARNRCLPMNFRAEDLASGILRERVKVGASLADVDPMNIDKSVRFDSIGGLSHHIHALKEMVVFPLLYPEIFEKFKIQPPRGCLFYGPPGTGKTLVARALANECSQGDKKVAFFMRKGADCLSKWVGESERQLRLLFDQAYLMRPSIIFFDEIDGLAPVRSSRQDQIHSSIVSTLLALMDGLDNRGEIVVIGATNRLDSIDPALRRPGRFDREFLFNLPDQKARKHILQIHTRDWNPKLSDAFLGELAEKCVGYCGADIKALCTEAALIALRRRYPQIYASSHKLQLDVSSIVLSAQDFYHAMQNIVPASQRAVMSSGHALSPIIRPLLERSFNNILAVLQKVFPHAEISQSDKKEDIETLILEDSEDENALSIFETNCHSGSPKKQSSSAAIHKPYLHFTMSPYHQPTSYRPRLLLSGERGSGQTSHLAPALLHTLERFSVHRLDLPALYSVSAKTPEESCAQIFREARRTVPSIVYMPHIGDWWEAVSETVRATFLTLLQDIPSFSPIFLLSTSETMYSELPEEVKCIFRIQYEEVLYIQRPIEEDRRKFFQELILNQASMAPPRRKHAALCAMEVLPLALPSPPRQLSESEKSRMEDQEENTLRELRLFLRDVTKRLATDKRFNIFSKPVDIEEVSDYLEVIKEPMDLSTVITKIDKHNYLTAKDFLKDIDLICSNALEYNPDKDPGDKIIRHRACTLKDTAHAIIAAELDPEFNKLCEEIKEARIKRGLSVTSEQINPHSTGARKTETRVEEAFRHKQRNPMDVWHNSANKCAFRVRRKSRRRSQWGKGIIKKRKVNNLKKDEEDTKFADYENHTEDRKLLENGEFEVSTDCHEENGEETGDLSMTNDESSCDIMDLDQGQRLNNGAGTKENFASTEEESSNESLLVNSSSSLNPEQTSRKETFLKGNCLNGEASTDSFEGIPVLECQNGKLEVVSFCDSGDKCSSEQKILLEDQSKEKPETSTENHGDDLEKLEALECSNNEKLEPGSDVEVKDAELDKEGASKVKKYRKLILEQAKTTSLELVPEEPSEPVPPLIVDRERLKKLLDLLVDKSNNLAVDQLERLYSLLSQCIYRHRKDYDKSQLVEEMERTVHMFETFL

## COc1cc(C#N)ccc1S(=O)(=O)Nc1ccc2c(c1)cc(C)c(=O)n2C
[1]
  IC50: 0.114 µM
[2]
  GI50: 15.6 µM
[3]
  IC50: > 10 µM
[4]
  IC50: 0.07 µM
[5]
  IC50: > 100 µM
